{"source": "patent US4127661A", "about": "“Piperazine alkanols” (Serdex - Societe d'Etudes, de Recherches, de Diffusion et …, priority 1976, dated 1978)", "key": {"[1]": {"tested_on": "femoral artery", "experiment": "Vasodilator action in anesthetized dogs (femoral rate of flow, local peripheral resistance), 5 mg/kg i.v.", "assay_type": "in vivo", "settings": "5 mg/kg intravenously", "protocol": "(§1) The tests were conducted with pentobarbital anesthetized dogs (35 mg/kg/i.v.) under artificial respiration with pentobarbital infusion (5 mg/kg/hr).\n(§2) The carotid arterial pressure was recorded by means of an electromagnetic capsule connected to the carotid artery. From said determination were calculated the mean blood pressure, the systolic pressure, the diastolic pressure and the pulse pressure.\n(§3) The femoral rate of flow was recorded by means of an electromagnetic sensor placed around the femoral artery. Local peripheral resistance was calculated from said parameters.\nThe compounds of the formula (I) were administered intravenously at a dosage of 5 mg/kg. Two tests were conducted with each compound."}, "[2]": {"tested_on": "femoral artery", "experiment": "Peripheral action of the compounds of Examples 1, 2 and 4 (femoral rate of flow, local peripheral resistance, blood pressure), 2.5 mg/kg", "assay_type": "in vivo, dogs", "settings": "for Femoral rate of flow: increase; for Local peripheral resistance: at 30mn, decrease", "protocol": "as §1, §2, §3"}, "[3]": {"experiment": "Acute toxicity, oral", "settings": "rat, in vivo, single administration, fasted male Sprague Dawley rats, after 14 days, p = 0.05, Litchfield and Wilcoxon", "protocol": "Acute toxicity was studied orally in male Sprague Dawley rats kept fasting 24 hours prior to the test, distributed in homogeneous groups of 10 animals each.\nThe animals were given a single administration of the test materials and were kept under observation during 14 days.\nThe LD50 were determined after 14 days at a probability threshold of p = 0.05, according to the method of Litchfield and Wilcoxon."}}, "note": "Counter-ions that a name gives are not always drawn."}
{"compound": "CC(=O)C(c1ccccc1)N1CCN(CCOc2ccccc2)CC1", "note": "(stereo not shown) [Example 1, 1-[N-(2-phenoxy-1-ethyl)piperazino]-1-phenylacetone]", "values": [{"measurement": "assessment among the compounds tested for peripheral vasodilator activity", "setting": "[1]", "value": "particularly valuable"}, {"measurement": "Femoral rate of flow", "setting": "[2]; 1 hour", "value": "> 25", "unit": "%"}, {"measurement": "Local peripheral resistance", "setting": "[2]", "value": 20, "unit": "%"}, {"measurement": "LD50 at 336 h", "setting": "[3]", "value": 800, "unit": "mg/kg"}]}
{"compound": "CC(O)C(c1ccccc1)N1CCN(CCOc2ccccc2)CC1", "note": "(stereo not shown) [Example 2, 1-[N-(2-phenoxy-1-ethyl)piperazino]-1-phenyl-2-propanol]", "values": [{"measurement": "assessment among the compounds tested for peripheral vasodilator activity", "setting": "[1]", "value": "particularly valuable"}, {"measurement": "Femoral rate of flow", "setting": "[2]; 30mn", "value": "> 15", "unit": "%"}, {"measurement": "Local peripheral resistance", "setting": "[2]", "value": 15, "unit": "%"}, {"measurement": "Femoral rate of flow", "setting": "[2]; on injection (injec.)", "value": "> 100", "unit": "%"}, {"measurement": "LD50 at 336 h", "setting": "[3]", "value": 250, "unit": "mg/kg"}]}
{"compound": "CCC(O)C(c1ccccc1)N1CCN(CCOc2ccccc2C)CC1", "note": "(stereo not shown) [Example 4, 1-(N-[2-(2-methyl-1-phenoxy)-1-ethyl]piperazino)-1-phenyl-2-butanol dihydrochloride]", "values": [{"measurement": "assessment among the compounds tested for peripheral vasodilator activity", "setting": "[1]", "value": "particularly valuable"}, {"measurement": "Femoral rate of flow", "setting": "[2]; 1 hour", "value": "> 30", "unit": "%"}, {"measurement": "Local peripheral resistance", "setting": "[2]", "value": 30, "unit": "%"}, {"measurement": "LD50 at 336 h", "setting": "[3]", "value": 700, "unit": "mg/kg"}]}
